Laboratory results reported in patent publication US5880103A, “Immunomodulatory peptides” (President and Fellows of Harvard College, priority 1995, dated 1999).

Target: T1, HLA-DR1 (Homo sapiens, UniProt P01903+P01911, A100R/D57E/F55L/F60I/F76Y/I96L/L162R/M171V/P40L/Q125E/R42F/V115G/Y59C)
T1 construct: made in house; host or cells: Sf9 insect cells
Test: Competition of synthetic peptides against 125I-labeled HA 307-319 for binding to "empty" HLA-DR1

Row | Ki | Molecule | relative binding affinity to DR1 (in words) (competitor peptides vs HA 307-319, "empty" DR1, at first approximation)
1 | > 10 µM | CSCC[C@H](NC(=O)[C@H](CCCNC(=N)N)NC(=O)[C@H](CCSC)NC(=O)[C@H](CCCCN)NC(=O)[C@H](CO)NC(=O)[C@@H](NC(=O)[C@@H]1CCCN1C(=O)[C@H](CCCCN)NC(=O)[C@@H]1CCCN1C(=O)[C@@H]1CCCN1C(=O)[C@H](CCCCN)NC(=O)[C@@H]1CCCN1C(=O)[C@@H](N)CC(C)C)C(C)C)C(=O)N[C@@H](C)C(=O)N[C@H](C(=O)O)[C@@H](C)O [Ii 97-111] | 
2 |  | Ii 107-120: invariant chain peptide named in the text as highest-affinity competitor; probably the Ii 106-120 entry of Table 2 (MRMATPLLMQALPM) | highest affinity of all the competitor peptides measured
